# Where “and” joins values, the source holds several entries; their conditions need not be identical. Equal entries are not always repeated. Entries after “also recorded” stand apart in the source; their conditions may differ.
# How the values were obtained:
# intracellular cAMP = assay: Cyclic AMP assay in FRT cells; assay type: cell-based, rat; conditions: 10 μM CP7q
# Experimental: FRT cells grown on 12 well culture plates were washed 3 times with PBS at 37°C and then incubated in PBS at 37°C containing 100 μM IBMX for […] in the absence or presence of forskolin or CP7q. After 10 min incubation, the cells were washed with cold PBS and cytosolic cAMP was measured using a cAMP immunoassay kit (Parameter TM cAMP immunoassay kit, R&D Systems) according to the manufacturer's protocol.
# ΔF508-CFTR [1] = target: T1, ΔF508-CFTR (Homo sapiens, UniProt P13569, DEL508-508); assay: Immunoblot of ΔF508-CFTR band C/B in A549-ΔF508-CFTR cells; assay type: cell-based; parameters: expressed in transfected cells; conditions: 48 h, combined with 5 μM VX-809, 10 μM CP7q, vs VX-809 alone
# Experimental: A549 cells stably expressing ΔF508-CFTR were lysed with cell lysis buffer (50 mM Tris-HCl, pH 7.4, 1% Nonidet P-40, 0.25% sodium deoxycholate, 150 mM NaCl, 1 mM EDTA, 1 mM Na3VO4, and protease inhibitor mixture). Whole cell lysates were centrifuged at 15,000 g for 10 min at 4°C to remove the cell debris, and equal amounts (80 μg protein/lane) of supernatant protein were separated by 4–12% Tris-glycine precast gel (KOMA BIOTECH, Seoul, Korea) and then transferred onto PVDF membrane (Millipore, Billerica, MA). Membrane was blocked with 5% non-fat skim milk in PBS including 0.05% Tween 20 for 1 hour at room temperature. This membrane was then incubated overnight with primary CFTR antibody (M3A7, Millipore, Billerica, MA). After washing with 0.05% Tween 20 in PBS (PBST), the blot was further incubated for 45 min at room temperature with an anti-mouse secondary antibody (Cell Signaling). The membrane was then washed three times with PBST for 5 minutes and then visualized using the ECL Plus western blotting detection system (GE Healthcare Amersham; Piscataway, NJ). The immunoblot results were analyzed quantitatively by ImageJ Software.
# ΔF508-CFTR [2] = target: T1, ΔF508-CFTR; assay: Halide-sensitive YFP microplate reader assay of CFTR potentiation, ΔF508-CFTR; assay type: cell-based; parameters: expressed in transfected cells; host or cells: Fisher rat thyroid (FRT) cells, co-expressing halide sensor YFP-H148Q/I152L; provided by Dr. Alan Verkman; conditions: FRT cells rescued at 27°C, 10 μM forskolin
# Experimental: FRT cells expressing wild type- or ΔF508-CFTR with the halide sensor YFP-H148Q/I152L were plated in 96-well black-walled microplates (Corning Inc., Corning, NY) at a density of 2 x10^4cells per well. FRT-WT-CFTR-YFP cells were incubated for 48 h at 37°C, and FRT-ΔF508-CFTR-YFP cells were incubated for 24 h at 27°C after 24 h incubation at 37°C to rescue ΔF508-CFTR localization. Assays were done using FLUO star Omega microplate reader (BMG Labtech, Ortenberg, Germany) and MARS Data Analysis Software (BMG Labtech). Each well of a 96-well plate was washed 3 times in PBS (200 μL/wash). 100 μL PBS was added to each well. Forskolin (0.1 and 10 μM for WT- and ΔF508-CFTR, respectively) and test compounds (1 μL) were added to each well. After 10 min, 96-well plates were transferred to the microplate reader preheated to 37°C for fluorescence assay. Each well was assayed individually for CFTR-mediated I^- influx by recording fluorescence continuously (200 ms per point) for 2 s (baseline), then 100 μL of 140 mM I^- solution was added at 2 s and then YFP fluorescence was recorded for 14 s. Initial iodide influx rate was determined from the initial slope of fluorescence decrease, by nonlinear regression, following infusion of iodide.
# ΔF508-CFTR [3] = target: T1, ΔF508-CFTR; assay: Apical membrane current (Ussing chamber) in FRT cells expressing low temperature-rescued ΔF508-CFTR; assay type: cell-based; parameters: expressed in transfected cells; host or cells: Fisher rat thyroid (FRT) cells, co-expressing halide sensor YFP-H148Q/I152L; provided by Dr. Alan Verkman; conditions: 20 μM forskolin
# Experimental: Snapwell inserts containing CFTR-expressing FRT and primary culture of human nasal epithelial cells were mounted in Ussing chambers (Physiologic Instruments, San Diego, CA). Forskolin, genistein, CP7q and CFTRinh-172 were added to the apical and basolateral bath solution. For FRT cells, the apical bath was filled with a half-Cl^- solution and the basolateral bath was filled with HCO3^—buffered solution, and the basolateral membrane was permeabilized with 250 μg/mL amphotericin B. For primary cultures of human nasal epithelial cells, symmetrical HCO3^—buffered solutions were used and ENaC was inhibited by pre-treatment with amiloride (100 μM). All cells were bathed for a 20 min stabilization period and aerated with 95% O2 / 5% CO2 at 37°C. Apical membrane current and short-circuit current were measured with an EVC4000 Multi-Channel V/I Clamp (World Precision Instruments, Sarasota, FL) and recorded using PowerLab 4/35 (AD Instruments, Castle Hill, Australia). Data were collected and analyzed with ADInstruments acquisition software Labchart Pro 7 software. The sampling rate was 4 Hz.
# ΔF508-CFTR [4] = target: T1, ΔF508-CFTR; assay: Whole-cell patch-clamp in FRT cells expressing ΔF508-CFTR; assay type: cell-based; parameters: expressed in transfected cells; host or cells: Fisher rat thyroid (FRT) cells, co-expressing halide sensor YFP-H148Q/I152L; provided by Dr. Alan Verkman
# Experimental: Whole-cell patch-clamp recordings were performed on WT- or ΔF508-CFTR-expressing FRT cells. The bath solution contained (in mM): 140 NMDG-Cl, 1 CaCl2, 1 MgCl2, 10 glucose and 10 HEPES (pH 7.4). The pipette solution contained (in mM): 130 CsCl, 0.5 EGTA, 1 MgCl2, 1 Tris-ATP, and 10 HEPES (pH 7.2). Pipettes were pulled from borosilicate glass and had resistances of 3–5 MΩ after fire polishing. Seal resistances were between 3 and 10 GΩ. After establishing the whole-cell configuration, CFTR was activated by forskolin and/or CP7q. Whole-cell currents were elicited by applying hyperpolarizing and depolarizing voltage pulses from a holding potential of 0 mV to potentials between -80 mV and +80 mV in steps of 20 mV. Recordings were made at room temperature using an Axopatch-200B (Axon Instruments). Currents were digitized and analyzed using a Digidata 1440A converter (Axon Instruments), and pCLAMP 10.2 software (Molecular Devices, Sunnyvale, CA). Currents were low-pass filtered at 1 kHz and sampled at 5 kHz
# T1 sequence (P13569 with tags, fused parts or gaps DEL508-508): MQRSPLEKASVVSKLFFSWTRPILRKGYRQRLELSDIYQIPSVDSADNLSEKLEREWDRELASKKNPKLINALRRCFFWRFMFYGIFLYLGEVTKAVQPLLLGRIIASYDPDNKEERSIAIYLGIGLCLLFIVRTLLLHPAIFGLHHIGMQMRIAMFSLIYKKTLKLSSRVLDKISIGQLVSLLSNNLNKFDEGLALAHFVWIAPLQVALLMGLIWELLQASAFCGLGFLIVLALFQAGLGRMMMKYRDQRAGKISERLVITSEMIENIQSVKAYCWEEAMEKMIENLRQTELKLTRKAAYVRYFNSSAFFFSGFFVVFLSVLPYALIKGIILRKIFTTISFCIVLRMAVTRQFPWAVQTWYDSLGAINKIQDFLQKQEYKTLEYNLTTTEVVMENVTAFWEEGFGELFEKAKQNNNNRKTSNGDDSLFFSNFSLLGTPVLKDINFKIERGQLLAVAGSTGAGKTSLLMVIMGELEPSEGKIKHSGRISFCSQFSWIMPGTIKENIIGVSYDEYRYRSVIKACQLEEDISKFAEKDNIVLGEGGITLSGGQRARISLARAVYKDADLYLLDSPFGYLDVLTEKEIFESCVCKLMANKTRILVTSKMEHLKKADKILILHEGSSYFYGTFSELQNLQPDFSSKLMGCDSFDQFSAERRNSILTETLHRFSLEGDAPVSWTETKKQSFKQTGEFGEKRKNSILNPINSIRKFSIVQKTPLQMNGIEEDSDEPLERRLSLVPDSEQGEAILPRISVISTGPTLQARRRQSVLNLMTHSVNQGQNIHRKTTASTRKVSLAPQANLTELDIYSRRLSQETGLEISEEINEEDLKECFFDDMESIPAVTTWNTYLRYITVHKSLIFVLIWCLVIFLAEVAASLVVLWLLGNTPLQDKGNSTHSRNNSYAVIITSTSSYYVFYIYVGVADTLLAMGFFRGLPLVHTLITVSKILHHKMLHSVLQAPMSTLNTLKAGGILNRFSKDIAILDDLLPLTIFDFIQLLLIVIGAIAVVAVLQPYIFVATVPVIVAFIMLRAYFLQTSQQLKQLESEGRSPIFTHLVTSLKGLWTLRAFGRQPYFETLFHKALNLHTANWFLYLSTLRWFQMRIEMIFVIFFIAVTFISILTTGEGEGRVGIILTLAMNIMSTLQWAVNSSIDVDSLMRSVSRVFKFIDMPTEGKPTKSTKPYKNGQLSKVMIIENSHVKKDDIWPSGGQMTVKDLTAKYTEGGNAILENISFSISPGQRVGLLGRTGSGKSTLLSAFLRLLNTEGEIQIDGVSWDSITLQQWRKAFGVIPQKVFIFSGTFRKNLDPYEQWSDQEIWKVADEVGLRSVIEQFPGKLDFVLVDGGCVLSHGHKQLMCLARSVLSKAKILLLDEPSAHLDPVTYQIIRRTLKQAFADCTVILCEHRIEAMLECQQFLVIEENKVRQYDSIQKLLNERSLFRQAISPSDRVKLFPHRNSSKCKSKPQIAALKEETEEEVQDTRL
smiles,measurement,setting,value
"COc1ccc(C2CC(c3ccc(O)cc3O)=NN2c2ccc(S(N)(=O)=O)cc2)c(OC)c1 (stereo not shown) [Compound 7q, 4-[3-(2,4-dihydroxyphenyl)-5-(2,4-dimethoxyphenyl)-4,5-dihydro-1H-pyrazol-1-yl] benzenesulfonamide]",Effect on intracellular cAMP level,intracellular cAMP,did not alter; also recorded: did not affect
same,Effect on ratio of band C to band B of ΔF508-CFTR,ΔF508-CFTR [1],strongly increased
same,EC50,ΔF508-CFTR [2],4.8 µM
same,Efficacy of ΔF508-CFTR potentiation compared with genistein,ΔF508-CFTR [3]; genistein 50 μM,slightly higher than that of genistein
same,EC50,"ΔF508-CFTR [3]; FRT cells, 27°C rescue 24 h",4.45 µM and ~4.45 µM
same,Potentiation of whole-cell ΔF508-CFTR Cl- current,"ΔF508-CFTR [4]; 10 μM forskolin, 10 μM CP7q, 27°C rescue",significantly potentiated
same,Activation of ΔF508-CFTR without forskolin stimulation,"ΔF508-CFTR [4]; whole cell patch-clamp, no forskolin",did not activate

# Reference: article PMC4749168, “Potentiation of ΔF508- and G551D-CFTR-Mediated Cl^- Current by Novel Hydroxypyrazolines” (PLoS ONE, 2016)
